Reference: US20230398130A1, “METHODS AND COMPOSITIONS FOR DIFFERENTIATING STEM CELLS” (Massachusetts Institute of Technology, priority 2020, published 2023)

Key:
ISC-enriched organoids [1] = experiment: Primary screen, 384-well 2.5-D organoid differentiation (ENR+CD, 6 days): carbachol-induced lysozyme secretion (LYZ.S); assay type: cell-based, murine; conditions: primary screen, vs plate median
Excerpt: (§1) High-throughput screening.

ISC-enriched organoids [2] = experiment: Primary screen, 384-well 2.5-D organoid differentiation (ENR+CD, 6 days): basal lysozyme secretion (LYZ.NS); assay type: cell-based, murine; conditions: primary screen; for Dose.FC.LYZ.NS (log 2 fold change): vs plate median
Excerpt: as §1

ISC-enriched organoids [3] = experiment: Primary screen, 384-well 2.5-D organoid differentiation (ENR+CD, 6 days, Target Selective Inhibitor Library, vs whole-plate median): ATP (CellTiter-Glo 3D, CTG); conditions: primary screen; for Dose.FC.CTG (log 2 fold change): vs plate median

Row | SMILES | Dose.FC.LYZ.S (log 2 fold change) (ISC-enriched organoids [1]; Dose 0.08 uM) | Dose.FC.LYZ.S (log 2 fold change) (ISC-enriched organoids [1]; Dose 0.40 uM) | Dose.FC.LYZ.S (log 2 fold change) (ISC-enriched organoids [1]; Dose 2.00 uM) | Dose.FC.LYZ.S (log 2 fold change) (ISC-enriched organoids [1]; Dose 10.00 uM) | Z.LYZ.NS (standard z score) (ISC-enriched organoids [2]; Dose 0.08 uM) | Dose.FC.LYZ.NS (log 2 fold change) (ISC-enriched organoids [2]; Dose 0.08 uM) | Z.LYZ.NS (standard z score) (ISC-enriched organoids [2]; Dose 0.40 uM) | Dose.FC.LYZ.NS (log 2 fold change) (ISC-enriched organoids [2]; Dose 0.40 uM) | Z.LYZ.NS (standard z score) (ISC-enriched organoids [2]; Dose 2.00 uM) | Dose.FC.LYZ.NS (log 2 fold change) (ISC-enriched organoids [2]; Dose 2.00 uM) | Z.LYZ.NS (standard z score) (ISC-enriched organoids [2]; Dose 10.00 uM) | Dose.FC.LYZ.NS (log 2 fold change) (ISC-enriched organoids [2]; Dose 10.00 uM) | Z.CTG (standard z score) (ISC-enriched organoids [3]; Dose 0.08 uM) | Dose.FC.CTG (log 2 fold change) (ISC-enriched organoids [3]; Dose 0.08 uM) | Z.CTG (standard z score) (ISC-enriched organoids [3]; Dose 0.40 uM) | Dose.FC.CTG (log 2 fold change) (ISC-enriched organoids [3]; Dose 0.40 uM) | Z.CTG (standard z score) (ISC-enriched organoids [3]; Dose 2.00 uM) | Dose.FC.CTG (log 2 fold change) (ISC-enriched organoids [3]; Dose 2.00 uM) | Z.CTG (standard z score) (ISC-enriched organoids [3]; Dose 10.00 uM) | Dose.FC.CTG (log 2 fold change) (ISC-enriched organoids [3]; Dose 10.00 uM)
1 | CC(C)[C@H](O)C(=O)N[C@@H](C)C(=O)N[C@@H]1C(=O)N(C)CCc2ccccc21 [Semagacestat (LY450139)] | −0.014 | −0.006 | −0.081 | −0.162 | 0.151 | 0.017 | −0.181 | −0.021 | −0.704 | −0.081 | −0.942 | −0.108 | 0.338 | 0.141 | −0.494 | −0.207 | −0.306 | −0.128 | −2.045 | −0.856
2 | Nc1ccc(C(=O)[O-])c(O)c1.[Na+] [Sodium 4-Aminosalicylate] | 0.162 | 0.050 | 0.099 | 0.143 | 0.695 | 0.080 | 0.354 | 0.041 | 1.354 | 0.156 | 0.796 | 0.091 | 0.283 | 0.119 | 0.488 | 0.204 | 0.092 | 0.038 | 0.590 | 0.247
3 | O=[N+]([O-])c1ccc2c(c1)S(=O)(=O)C=C2 [Stattic] | 0.150 | 0.033 | 0.082 | −0.019 | 1.131 | 0.130 | 0.189 | 0.022 | 1.276 | 0.147 | −0.186 | −0.021 | −0.191 | −0.080 | −0.011 | −0.005 | 0.078 | 0.033 | −0.060 | −0.025
4 | Cc1cn([C@H]2C=C[C@@H](CO)O2)c(=O)[nH]c1=O [Stavudine (d4T)] | 0.134 | 0.001 | −0.003 | −0.120 | 0.620 | 0.071 | 0.027 | 0.003 | 0.074 | 0.009 | −0.828 | −0.095 | 0.226 | 0.095 | 0.351 | 0.147 | 0.179 | 0.075 | −0.179 | −0.075
5 | Cc1ccc(-n2nccn2)c(C(=O)N2CCN(c3nc4cc(Cl)ccc4o3)CC[C@H]2C)c1 [Suvorexant (MK-4305)] | 0.186 | 0.142 | 0.101 | 0.131 | 1.775 | 0.204 | 1.073 | 0.123 | 1.073 | 0.123 | 0.670 | 0.077 | 0.458 | 0.192 | 0.609 | 0.255 | 0.895 | 0.375 | 0.597 | 0.250
6 | O=C(Nc1ccncc1)c1cc([N+](=O)[O-])ccc1Cl [T0070907] | −0.005 | −0.001 | 0.081 | −0.312 | 0.084 | 0.010 | −0.029 | −0.003 | 0.373 | 0.043 | −1.897 | −0.218 | 0.267 | 0.112 | 0.062 | 0.026 | 0.119 | 0.050 | −1.806 | −0.756
7 | CNC(=O)c1ccccc1Nc1nc(Nc2ccc(N3CCOCC3)cc2OC)ncc1Cl [TAE226 (NVP-TAE226)] | −0.333 | −0.376 | −0.400 | −0.426 | −2.226 | −0.256 | −2.650 | −0.304 | −2.813 | −0.323 | −2.545 | −0.292 | −1.127 | −0.472 | −2.689 | −1.126 | −3.068 | −1.284 | −2.363 | −0.989
8 | CNC(=O)c1ccc2cc([C@@]3(O)CCn4cncc43)ccc2c1 [TAK-700 (Orteronel)] | 0.113 | 0.090 | 0.093 | 0.032 | 1.535 | 0.176 | 1.585 | 0.182 | 1.058 | 0.121 | −0.018 | −0.002 | −0.659 | −0.276 | −0.056 | −0.024 | −0.202 | −0.084 | 0.219 | 0.092
9 | O=C1CC(=O)c2c(Cl)c(Cl)c(Cl)c(Cl)c21 [TCID] | 0.062 | 0.017 | −0.066 | −0.054 | 0.431 | 0.049 | −0.155 | −0.018 | 0.578 | 0.066 | −0.159 | −0.018 | −0.325 | −0.136 | −0.017 | −0.007 | −0.517 | −0.217 | −0.545 | −0.228
10 | COc1ccc(C(=O)Nc2sc3c(c2C(N)=O)CCCC3)cc1OC [TCS 359] | 0.098 | 0.069 | −0.006 | 0.026 | 0.742 | 0.085 | 0.502 | 0.058 | 0.156 | 0.018 | −0.072 | −0.008 | 0.358 | 0.150 | 0.598 | 0.250 | 0.119 | 0.050 | −0.212 | −0.089
